We go through three compounds from article PMC8553373 (The Journal of Biological Chemistry, 2021).

Entries after “also recorded” stand apart in the source; their conditions may differ. Like-named read-outs stand apart in the source and are kept apart here.

Series [1] has as its target wild-type Nsp9COV19 as substrate of Nsp12COV19 NiRAN domain (Severe acute respiratory syndrome coronavirus 2, UniProt P0DTD1). It is filed as biochemical. Particulars: for Nsp9COV19 Cy3-modification, % of the signal of DMSO-only control reactions: 500 μM compound, 15 μM Nsp9COV19, 1 μM Nsp12COV19, triplicate.
Series [2] has as its system SARS-CoV-2. In kind it is cell-based.
For a further series, the system named is Vero 81 cells. Particulars: Vero 81, highest 50 μM concentration point.
Another series has as its system Vero e6 cells. Particulars: Vero e6, highest 50 μM concentration point.
The test system of series [3] is SARS-CoV-2. Particulars: cited from earlier work.
A further series concerns the target Nsp9COV19 (Severe acute respiratory syndrome coronavirus 2, UniProt P0DTD1). Details: species or system SARS-CoV-2. Particulars: native MS; binding ratios after incubation with 50 μM of each compound.

Take `C=C1C(=O)[C@]23[C@H](O)[C@H]1CC[C@H]2[C@@]12CO[C@]3(O)[C@@H](O)[C@@H]1C(C)(C)CC[C@@H]2O` [Compound 1, Oridonin]: the “Nsp9COV19 Cy3-modification, % of the signal of DMSO-only control reactions” value in series [1] stood at 20 ± 6%. Also, the “inhibition of UMPylation reaction (in words)” value in series [1] (UMPylation assays, discussion) is reported as “significant levels of inhibition”. The “viral titer following SARS-CoV-2 infection” value is “reduce viral tite at all time points” with SARS-CoV-2 [2]; “approximately fivefold reduced” with SARS-CoV-2 [2] (Calu-3 cells, 15 μM, after 24 h); “not maintained at later time points” with SARS-CoV-2 [2] (Calu-3 cells, 15 μM, later time points (48, 72 h)). Moreover, the “effect on cell proliferation (MTT)” value was “no effect on cell proliferation detected” with Calu-3 cells, “a degree of reduced proliferation” in the series on Vero 81 cells and “a degree of reduced proliferation” in the series on Vero e6 cells. Moreover, the “SARS-CoV-2 replication in in vitro cellular assays” value with SARS-CoV-2 [3] is “inhibit SARS-CoV-2 replication”.

Take `C=C1C(=O)[C@@]23[C@H](O)C[C@@H]4C(C)(C)CC[C@H](O)[C@@]4(CO)[C@@H]2CC[C@@H]1[C@H]3O` [Compound 6, Kamebakaurin]: the “relative Nsp9COV19 binding / affinity (in words)” value at Nsp9COV19 is on record as “some ability to cocomplex with Nsp9COV19 is retained”. Moreover, the “Nsp9COV19 Cy3-modification, % of the signal of DMSO-only control reactions” value in series [1] is recorded as approximately 66%.

`C=C1C(=O)[C@]23[C@H](O)[C@H]1CC[C@H]2[C@@]12CO[C@@]3(O)[C@@H](O)[C@@H]1[C@](C)(COC(C)=O)CC[C@H]2O` [Compound 3, Xerophilusin G]: the “relative Nsp9COV19 binding / affinity (in words)” value on Nsp9COV19 is “significantly reduced binding response; also recorded: abrogated binding completely”.
